The values that follow are results of earlier work, collected in patent US10434077B2, “Glycolic acid and/or D-lactic acid for the treatment of neurodegenerative diseases” (MAX-PLANCK-GESELLSCHAFT ZUR FOERDERUNG DER WISSENSCHAFTEN …, priority 2014, dated 2019).

Structures are written as SMILES.

The conditions of the data set: toxicology study; cited from earlier work.

For `CC(O)C(=O)O` (stereo not shown) [lactic acid, 2-hydroxypropanoic acid], the “amount declared as harmless” value is “about 8 g/day”.
